Assays:
Experiment in all cases: biochemical
[1] = molecular target: MAPKAPK3 (Homo sapiens, UniProt Q16644); set-up: gene MAPKAPK3; conditions: read-out: Dundee KSS % inhibition at 1uM
Protocol: The METi and RAFi were screened against kinase panels (SelectScreen, Invitrogen; University of Dundee, Division of Signal Transduction Therapy, UK; Upstate Biotechnology/Millipore, Billerica, MA). In these selectivity assays the concentration of ATP was set to the Km value of ATP for each kinase tested to allow for a relative potency comparison between the various kinases. The compounds were tested at 1 µM final concentration. […] (A) Kinase selectivity screen (KSS) performed at Upstate Biotechnology. […] (B) KSS performed at University of Dundee (Division of Signal Transduction Therapy). […] (PDF) Click here for additional data file.

[2] = molecular target: T1, CAMKKB (Homo sapiens, UniProt Q96RR4); set-up: University of Dundee kinase panel, percent inhibition of phosphorylation at 1 uM RAFi, ATP at Km; conditions: read-out: Dundee KSS %inh at 1 uM
T1 construct: gene CAMKK2
Protocol: (§1) The METi and RAFi were screened against kinase panels (SelectScreen, Invitrogen; University of Dundee, Division of Signal Transduction Therapy, UK; Upstate Biotechnology/Millipore, Billerica, MA). In these selectivity assays the concentration of ATP was set to the Km value of ATP for each kinase tested to allow for a relative potency comparison between the various kinases. The compounds were tested at 1 µM final concentration. […] Supplementary file pone.0039653.s002.pdf: Figure S2 Kinase Selectivity Screen of RAFi. (A) Kinase selectivity screen (KSS) performed at University of Dundee (Division of Signal Transduction Therapy). Values in % inhibition of phosphorylation given 1 µM of RAFi compared to control. (B) KSS performed at Invitrogen (Selectscreen Service) compared to control. Values in % inhibition of phosphorylation given 1 µM of RAFi. (C) Cell based dose response kinase inhibition of indicated kinases by RAFi. (PDF) Click here for additional data file.

[3] = molecular target: CDK2 (Homo sapiens, UniProt P24941); set-up: University of Dundee kinase panel, percent inhibition of phosphorylation at 1 uM RAFi, ATP at Km; conditions: read-out: Dundee KSS %inh at 1 uM
Protocol: as §1

[4] = molecular target: T2, CHK1 (Homo sapiens, UniProt O14757); set-up: University of Dundee kinase panel, percent inhibition of phosphorylation at 1 uM RAFi, ATP at Km; conditions: read-out: Dundee KSS %inh at 1 uM
T2 construct: gene CHEK1
Protocol: as §1

[5] = molecular target: T3, CKIIa (Homo sapiens, UniProt P68400); set-up: University of Dundee kinase panel, percent inhibition of phosphorylation at 1 uM RAFi, ATP at Km; conditions: read-out: Dundee KSS %inh at 1 uM
T3 construct: gene CSNK2A1
Protocol: as §1

[6] = molecular target: CSK (Homo sapiens, UniProt P41240); set-up: University of Dundee kinase panel, percent inhibition of phosphorylation at 1 uM RAFi, ATP at Km; conditions: read-out: Dundee KSS %inh at 1 uM
Protocol: as §1

[7] = molecular target: DYRK3 (Homo sapiens, UniProt O43781); set-up: University of Dundee kinase panel, percent inhibition of phosphorylation at 1 uM RAFi, ATP at Km; conditions: read-out: Dundee KSS %inh at 1 uM
Protocol: as §1

[8] = molecular target: T4, EEF-2 kinase (Homo sapiens, UniProt O00418); set-up: University of Dundee kinase panel, percent inhibition of phosphorylation at 1 uM RAFi, ATP at Km; conditions: read-out: Dundee KSS %inh at 1 uM
T4 construct: gene EEF2K
Protocol: as §1

[9] = molecular target: T5, MLCK (Homo sapiens, UniProt Q15746); set-up: University of Dundee kinase panel, percent inhibition of phosphorylation at 1 uM RAFi, ATP at Km; conditions: read-out: Dundee KSS %inh at 1 uM
T5 construct: gene MYLK
Protocol: as §1

[10] = molecular target: T6, MNK2 (Homo sapiens, UniProt Q9HBH9); set-up: University of Dundee kinase panel, percent inhibition of phosphorylation at 1 uM RAFi, ATP at Km; conditions: read-out: Dundee KSS %inh at 1 uM
T6 construct: gene MKNK2
Protocol: as §1

[11] = molecular target: NEK2 (Homo sapiens, UniProt P51955); set-up: University of Dundee kinase panel, percent inhibition of phosphorylation at 1 uM RAFi, ATP at Km; conditions: read-out: Dundee KSS %inh at 1 uM
Protocol: as §1

[12] = molecular target: PBK (Homo sapiens, UniProt Q96KB5); set-up: University of Dundee kinase panel, percent inhibition of phosphorylation at 1 uM RAFi, ATP at Km; conditions: read-out: Dundee KSS %inh at 1 uM
Protocol: as §1

[13] = molecular target: PIM1 (Homo sapiens, UniProt P11309); set-up: University of Dundee kinase panel, percent inhibition of phosphorylation at 1 uM RAFi, ATP at Km; conditions: read-out: Dundee KSS %inh at 1 uM
Protocol: as §1

[14] = molecular target: T7, PRK2 (Homo sapiens, UniProt Q16513); set-up: University of Dundee kinase panel, percent inhibition of phosphorylation at 1 uM RAFi, ATP at Km; conditions: read-out: Dundee KSS %inh at 1 uM
T7 construct: gene PKN2
Protocol: as §1

[15] = molecular target: T8, SGK (Homo sapiens, UniProt O00141); set-up: University of Dundee kinase panel, percent inhibition of phosphorylation at 1 uM RAFi, ATP at Km; conditions: read-out: Dundee KSS %inh at 1 uM
T8 construct: gene SGK1
Protocol: as §1

[16] = molecular target: chicken CSK (Gallus gallus, UniProt P41239); set-up: University of Dundee kinase panel, percent inhibition of phosphorylation at 1 uM RAFi, ATP at Km; conditions: read-out: Dundee KSS %inh at 1 uM
Protocol: as §1

[17] = molecular target: T9, p38d (Homo sapiens, UniProt O15264); set-up: University of Dundee kinase panel, percent inhibition of phosphorylation at 1 uM RAFi, ATP at Km; conditions: read-out: Dundee KSS %inh at 1 uM
T9 construct: gene MAPK13
Protocol: as §1

[18] = molecular target: T10, rabbit MEK1 (Oryctolagus cuniculus, UniProt P29678); set-up: University of Dundee kinase panel, percent inhibition of phosphorylation at 1 uM RAFi, ATP at Km; conditions: read-out: Dundee KSS %inh at 1 uM
T10 construct: gene MAP2K1
Protocol: as §1

[19] = molecular target: T11, rat ROCKII (Rattus norvegicus, UniProt Q62868); set-up: University of Dundee kinase panel, percent inhibition of phosphorylation at 1 uM RAFi, ATP at Km; conditions: read-out: Dundee KSS %inh at 1 uM
T11 construct: gene Rock2
Protocol: as §1

T9 sequence (O15264 whole entry): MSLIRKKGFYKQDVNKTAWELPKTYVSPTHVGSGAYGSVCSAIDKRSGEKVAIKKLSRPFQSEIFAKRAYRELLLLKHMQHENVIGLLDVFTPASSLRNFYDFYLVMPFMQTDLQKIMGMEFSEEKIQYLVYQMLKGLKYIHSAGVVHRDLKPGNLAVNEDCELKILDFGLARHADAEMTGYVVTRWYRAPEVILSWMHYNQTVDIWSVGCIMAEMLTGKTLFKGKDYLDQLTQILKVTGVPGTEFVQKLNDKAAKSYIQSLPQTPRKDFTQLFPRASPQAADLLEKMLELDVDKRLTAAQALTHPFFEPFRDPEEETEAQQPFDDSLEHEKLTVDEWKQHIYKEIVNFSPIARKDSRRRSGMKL
T7 sequence (Q16513 whole entry): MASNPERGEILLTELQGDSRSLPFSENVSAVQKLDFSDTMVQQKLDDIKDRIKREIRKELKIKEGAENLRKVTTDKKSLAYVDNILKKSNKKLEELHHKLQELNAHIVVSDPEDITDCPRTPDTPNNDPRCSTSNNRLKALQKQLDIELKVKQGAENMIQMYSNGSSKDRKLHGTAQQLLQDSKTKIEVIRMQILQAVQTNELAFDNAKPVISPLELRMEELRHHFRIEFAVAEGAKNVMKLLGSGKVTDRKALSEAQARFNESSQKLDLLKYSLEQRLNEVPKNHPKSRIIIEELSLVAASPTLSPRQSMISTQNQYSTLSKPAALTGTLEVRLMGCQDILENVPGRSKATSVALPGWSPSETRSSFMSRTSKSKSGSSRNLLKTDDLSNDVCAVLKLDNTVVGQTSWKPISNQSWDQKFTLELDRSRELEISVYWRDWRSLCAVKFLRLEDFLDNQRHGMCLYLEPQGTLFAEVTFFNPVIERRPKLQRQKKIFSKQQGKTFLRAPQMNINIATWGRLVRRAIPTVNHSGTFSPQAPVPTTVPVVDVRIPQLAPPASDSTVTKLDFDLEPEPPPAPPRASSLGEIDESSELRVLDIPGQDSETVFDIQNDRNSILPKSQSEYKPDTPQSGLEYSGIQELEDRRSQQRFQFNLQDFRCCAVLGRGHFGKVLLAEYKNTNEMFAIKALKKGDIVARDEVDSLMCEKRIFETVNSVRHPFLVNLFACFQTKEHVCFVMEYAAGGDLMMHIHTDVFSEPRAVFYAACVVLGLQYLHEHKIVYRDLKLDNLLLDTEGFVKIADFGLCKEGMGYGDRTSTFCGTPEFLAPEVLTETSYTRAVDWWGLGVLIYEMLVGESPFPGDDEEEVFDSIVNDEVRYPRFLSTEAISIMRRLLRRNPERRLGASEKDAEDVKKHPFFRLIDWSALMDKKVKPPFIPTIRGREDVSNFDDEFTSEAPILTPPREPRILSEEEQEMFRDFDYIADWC
Chain of PBK (Q96KB5 whole entry): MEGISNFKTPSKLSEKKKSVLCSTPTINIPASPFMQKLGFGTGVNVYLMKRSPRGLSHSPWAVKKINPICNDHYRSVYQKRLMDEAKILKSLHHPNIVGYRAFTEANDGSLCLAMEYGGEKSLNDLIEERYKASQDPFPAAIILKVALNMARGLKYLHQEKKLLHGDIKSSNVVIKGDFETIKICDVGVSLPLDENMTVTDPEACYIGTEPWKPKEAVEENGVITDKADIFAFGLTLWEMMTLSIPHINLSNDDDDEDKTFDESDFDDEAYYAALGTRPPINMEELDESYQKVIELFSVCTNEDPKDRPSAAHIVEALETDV
Chain of MAPKAPK3 (Q16644 whole entry): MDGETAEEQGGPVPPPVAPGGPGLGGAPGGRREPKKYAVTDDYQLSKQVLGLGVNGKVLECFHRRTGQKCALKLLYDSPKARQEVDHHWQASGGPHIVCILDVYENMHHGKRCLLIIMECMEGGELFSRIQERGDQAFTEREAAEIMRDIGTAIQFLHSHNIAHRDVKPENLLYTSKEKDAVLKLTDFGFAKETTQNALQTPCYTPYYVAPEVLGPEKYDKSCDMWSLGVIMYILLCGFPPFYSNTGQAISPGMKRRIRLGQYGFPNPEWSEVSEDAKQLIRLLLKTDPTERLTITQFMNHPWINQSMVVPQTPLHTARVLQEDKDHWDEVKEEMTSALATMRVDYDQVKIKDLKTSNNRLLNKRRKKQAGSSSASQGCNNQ
T11 sequence (Q62868 whole entry): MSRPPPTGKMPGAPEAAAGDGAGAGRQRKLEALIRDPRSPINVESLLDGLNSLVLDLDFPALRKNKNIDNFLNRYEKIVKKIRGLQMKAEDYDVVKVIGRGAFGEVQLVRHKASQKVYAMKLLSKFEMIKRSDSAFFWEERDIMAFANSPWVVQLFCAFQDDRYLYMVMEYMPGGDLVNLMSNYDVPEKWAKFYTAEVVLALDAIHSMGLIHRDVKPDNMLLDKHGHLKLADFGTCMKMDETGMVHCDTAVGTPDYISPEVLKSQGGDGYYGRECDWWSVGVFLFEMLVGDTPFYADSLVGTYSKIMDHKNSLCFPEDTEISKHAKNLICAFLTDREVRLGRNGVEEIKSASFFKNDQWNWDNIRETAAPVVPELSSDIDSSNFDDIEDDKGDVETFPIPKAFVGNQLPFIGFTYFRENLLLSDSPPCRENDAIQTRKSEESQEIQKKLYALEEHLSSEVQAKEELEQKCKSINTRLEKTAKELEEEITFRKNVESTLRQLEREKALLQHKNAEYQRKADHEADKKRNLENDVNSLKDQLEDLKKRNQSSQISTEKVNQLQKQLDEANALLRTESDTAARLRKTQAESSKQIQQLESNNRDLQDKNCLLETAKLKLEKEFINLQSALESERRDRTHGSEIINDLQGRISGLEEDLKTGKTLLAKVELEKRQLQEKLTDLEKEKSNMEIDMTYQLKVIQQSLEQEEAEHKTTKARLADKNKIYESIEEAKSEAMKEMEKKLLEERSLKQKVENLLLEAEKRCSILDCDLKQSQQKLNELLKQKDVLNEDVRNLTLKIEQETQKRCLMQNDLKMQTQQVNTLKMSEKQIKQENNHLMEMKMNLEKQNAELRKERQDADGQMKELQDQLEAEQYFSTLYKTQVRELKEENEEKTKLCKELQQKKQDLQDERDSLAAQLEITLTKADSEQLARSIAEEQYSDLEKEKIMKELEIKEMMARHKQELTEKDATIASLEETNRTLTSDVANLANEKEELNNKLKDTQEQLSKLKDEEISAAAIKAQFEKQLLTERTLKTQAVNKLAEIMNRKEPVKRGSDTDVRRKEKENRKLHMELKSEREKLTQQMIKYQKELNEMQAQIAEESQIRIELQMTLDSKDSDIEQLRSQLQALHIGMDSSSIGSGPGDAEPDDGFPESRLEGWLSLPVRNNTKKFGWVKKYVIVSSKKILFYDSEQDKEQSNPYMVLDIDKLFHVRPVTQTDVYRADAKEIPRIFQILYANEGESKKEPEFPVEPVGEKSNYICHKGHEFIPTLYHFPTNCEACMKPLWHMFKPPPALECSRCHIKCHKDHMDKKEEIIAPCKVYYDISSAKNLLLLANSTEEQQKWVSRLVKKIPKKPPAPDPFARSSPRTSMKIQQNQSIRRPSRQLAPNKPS
Chain of PIM1 (P11309 whole entry): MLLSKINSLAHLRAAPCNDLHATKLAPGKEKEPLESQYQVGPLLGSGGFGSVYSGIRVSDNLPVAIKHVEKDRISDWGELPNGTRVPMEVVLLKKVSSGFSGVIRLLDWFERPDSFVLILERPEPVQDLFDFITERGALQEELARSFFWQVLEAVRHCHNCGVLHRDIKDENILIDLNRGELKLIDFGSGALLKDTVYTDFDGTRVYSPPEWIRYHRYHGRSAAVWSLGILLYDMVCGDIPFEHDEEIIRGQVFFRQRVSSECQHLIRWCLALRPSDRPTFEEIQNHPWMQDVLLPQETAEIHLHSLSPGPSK
Chain of chicken CSK (P41239 whole entry): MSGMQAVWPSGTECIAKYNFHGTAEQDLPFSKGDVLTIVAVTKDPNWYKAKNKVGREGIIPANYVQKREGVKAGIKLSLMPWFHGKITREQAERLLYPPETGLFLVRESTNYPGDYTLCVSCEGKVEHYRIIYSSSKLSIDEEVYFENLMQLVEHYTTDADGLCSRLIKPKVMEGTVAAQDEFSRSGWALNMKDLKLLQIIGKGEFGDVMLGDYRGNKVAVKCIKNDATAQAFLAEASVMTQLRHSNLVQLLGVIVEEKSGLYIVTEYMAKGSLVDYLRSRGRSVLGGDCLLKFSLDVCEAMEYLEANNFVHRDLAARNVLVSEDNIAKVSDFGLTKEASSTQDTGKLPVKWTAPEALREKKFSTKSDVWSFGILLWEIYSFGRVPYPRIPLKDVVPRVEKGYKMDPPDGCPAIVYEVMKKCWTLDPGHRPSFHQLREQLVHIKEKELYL
T2 sequence (O14757 whole entry): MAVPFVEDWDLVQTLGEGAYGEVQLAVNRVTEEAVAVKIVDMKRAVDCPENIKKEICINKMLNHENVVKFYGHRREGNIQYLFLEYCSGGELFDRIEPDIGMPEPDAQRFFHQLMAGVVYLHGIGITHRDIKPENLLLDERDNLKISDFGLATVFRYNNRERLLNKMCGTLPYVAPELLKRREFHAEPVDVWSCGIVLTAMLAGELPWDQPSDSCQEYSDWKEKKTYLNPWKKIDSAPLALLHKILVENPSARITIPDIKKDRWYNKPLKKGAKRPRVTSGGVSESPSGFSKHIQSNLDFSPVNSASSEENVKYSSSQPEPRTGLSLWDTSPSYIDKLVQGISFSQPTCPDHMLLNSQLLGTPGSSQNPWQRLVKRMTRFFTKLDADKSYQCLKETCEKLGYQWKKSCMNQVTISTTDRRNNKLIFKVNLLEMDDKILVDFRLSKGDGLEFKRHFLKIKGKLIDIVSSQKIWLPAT

SMILES | inhibition at 1 µM [1] | inhibition at 1 µM [2] | inhibition at 1 µM [3] | inhibition at 1 µM [4] | inhibition at 1 µM [5] | inhibition at 1 µM [6] | inhibition at 1 µM [7] | inhibition at 1 µM [8] | inhibition at 1 µM [9] | inhibition at 1 µM [10] | inhibition at 1 µM [11] | inhibition at 1 µM [12] | inhibition at 1 µM [13] | inhibition at 1 µM [14] | inhibition at 1 µM [15] | inhibition at 1 µM [16] | inhibition at 1 µM [17] | inhibition at 1 µM [18] | inhibition at 1 µM [19]
OCCn1cc(-c2cnc3nnn(Cc4ccc5ncccc5c4)c3n2)cn1 [METi, PF-04217903] | 18.6% | – | – | – | – | – | – | – | – | – | – | – | – | – | – | – | – | – | –
N#CCCNc1nccc(-c2cn(CC(F)F)nc2-c2cnc3[nH]ccc3c2)n1 [RAFi, PF-04880594] | – | 16% | 38% | 2% | -2% | -4% | 11% | 0% | 22% | 12% | 73% | -2% | 4% | 16% | 4% | 27% | 9% | 34% | 25%

— PMC3382171 (PLoS ONE, 2012)
